# Laboratory results: patent publication US20210121527A1, “METHODS OF TREATING MINIMAL RESIDUAL CANCER” (ICAHN SCHOOL OF MEDICINE AT MOUNT SINAI, priority 2018, published 2021)
# What was measured:
# Experiment in all cases: DiscoveRx scanMAX kinase profiling
# Assay type in all cases: binding
# [1] = biological target: T1, CSK (Homo sapiens, UniProt P41240); conditions: read-out: Direct inhibitory activity on CSK (KINOMEscan)
# T1 construct: purchased DiscoverX (San Diego, Calif.)
# Protocol: (§1) Biochemical assays: Recombinant human EIF2AK3 (PERK) catalytic domain (amino acids 536-1116; Cat # PV5107), GFP-eIF2a (Cat # PV4809) substrate, and Terbium-labelled phospho-eIF2a antibody (Cat # PR8956B) were purchased from Invitrogen (Carlsbad, Calif.). HIS-SUMO-GCN2 catalytic domain (amino acids 584-1019) was expressed and purified from E. coli. TR-FRET kinase assays were performed in the absence or presence of inhibitors in a reaction buffer consisting of 50 mM HEPES, pH 7.5, 10 mMMgCl2, 1.0 mM EGTA, and 0.01% Brij-35, and 100-200 nM GFP-eIF2a substrate. […] Following the addition of test compound, the reaction was initiated by addition of enzyme and incubated at room temperature for 45 minutes. The reaction was stopped by addition of EDTA to a final concentration of 10 mM and Terbium-labelled phospho-eIF2α antibody was added at a final concentration of 2 nM and incubated for 90 minutes. The resulting fluorescence was monitored in an EnVison® Multilabel reader (PerkinElmer, Waltham, Mass.). TR-FRET ratios and the resulting IC50 values were determined from the fitted inhibition curves. Biochemical specificity profiling was performed at Cerep (Redmond, Wash.) and DiscoverX (San Diego, Calif.).
# [2] = biological target: T2, ERBB3 (Homo sapiens, UniProt P21860); conditions: read-out: Direct inhibitory activity on ERBB3 (KINOMEscan)
# T2 construct: purchased DiscoverX (San Diego, Calif.) scanMAX
# T2 sequence (P21860 20-1342): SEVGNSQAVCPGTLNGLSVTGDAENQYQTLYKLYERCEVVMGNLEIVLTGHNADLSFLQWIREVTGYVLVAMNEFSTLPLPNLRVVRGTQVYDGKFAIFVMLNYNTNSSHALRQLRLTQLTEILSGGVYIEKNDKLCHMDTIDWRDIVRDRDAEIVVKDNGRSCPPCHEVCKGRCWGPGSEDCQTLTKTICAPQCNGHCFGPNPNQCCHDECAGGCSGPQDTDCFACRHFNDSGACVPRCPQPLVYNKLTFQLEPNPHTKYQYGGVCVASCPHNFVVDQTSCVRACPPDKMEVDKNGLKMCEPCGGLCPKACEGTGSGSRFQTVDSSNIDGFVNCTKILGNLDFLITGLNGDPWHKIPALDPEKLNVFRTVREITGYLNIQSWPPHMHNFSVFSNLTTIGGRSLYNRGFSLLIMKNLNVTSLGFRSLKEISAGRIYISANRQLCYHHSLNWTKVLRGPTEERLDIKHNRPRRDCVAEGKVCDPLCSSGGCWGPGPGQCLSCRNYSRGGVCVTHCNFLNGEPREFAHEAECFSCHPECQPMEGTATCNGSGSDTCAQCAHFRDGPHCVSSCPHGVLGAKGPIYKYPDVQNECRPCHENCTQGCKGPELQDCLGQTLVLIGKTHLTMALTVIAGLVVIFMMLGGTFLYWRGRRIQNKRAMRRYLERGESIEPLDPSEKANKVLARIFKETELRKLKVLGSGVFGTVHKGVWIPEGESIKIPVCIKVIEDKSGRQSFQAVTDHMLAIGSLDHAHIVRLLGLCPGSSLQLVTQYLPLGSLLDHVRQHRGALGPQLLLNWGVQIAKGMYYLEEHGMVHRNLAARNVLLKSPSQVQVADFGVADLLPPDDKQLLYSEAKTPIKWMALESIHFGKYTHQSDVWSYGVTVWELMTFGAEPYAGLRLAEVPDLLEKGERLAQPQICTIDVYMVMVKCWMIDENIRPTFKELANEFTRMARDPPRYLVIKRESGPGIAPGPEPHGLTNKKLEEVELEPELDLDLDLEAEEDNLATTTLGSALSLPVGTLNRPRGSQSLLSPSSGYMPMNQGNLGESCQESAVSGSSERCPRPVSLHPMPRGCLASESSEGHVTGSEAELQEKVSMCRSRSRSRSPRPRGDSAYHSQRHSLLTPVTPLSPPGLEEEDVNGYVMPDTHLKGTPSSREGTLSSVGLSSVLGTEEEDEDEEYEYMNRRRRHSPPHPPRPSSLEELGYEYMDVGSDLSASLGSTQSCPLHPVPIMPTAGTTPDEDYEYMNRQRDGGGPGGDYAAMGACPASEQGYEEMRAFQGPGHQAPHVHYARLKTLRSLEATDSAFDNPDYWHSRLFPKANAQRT
# Protocol: as §1
# [3] = biological target: T3, ERK1 (MAPK3) (Homo sapiens, UniProt P27361); conditions: read-out: Direct inhibitory activity on ERK1 (KINOMEscan)
# T3 construct: purchased DiscoverX (San Diego, Calif.) scanMAX
# T3 sequence (P27361 whole entry): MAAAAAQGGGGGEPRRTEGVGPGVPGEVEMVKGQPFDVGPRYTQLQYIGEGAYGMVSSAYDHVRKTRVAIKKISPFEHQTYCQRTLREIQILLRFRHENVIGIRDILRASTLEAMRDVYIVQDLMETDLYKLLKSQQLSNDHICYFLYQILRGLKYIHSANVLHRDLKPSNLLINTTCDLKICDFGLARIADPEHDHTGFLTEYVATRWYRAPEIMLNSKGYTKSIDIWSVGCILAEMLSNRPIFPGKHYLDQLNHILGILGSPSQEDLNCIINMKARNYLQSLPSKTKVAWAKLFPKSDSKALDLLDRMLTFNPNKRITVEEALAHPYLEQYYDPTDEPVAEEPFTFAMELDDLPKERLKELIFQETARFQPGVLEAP
# Protocol: as §1
# [4] = biological target: T4, ERK2 (MAPK1) (Homo sapiens, UniProt P28482); conditions: read-out: Direct inhibitory activity on ERK2 (KINOMEscan)
# T4 construct: purchased DiscoverX (San Diego, Calif.) scanMAX
# T4 sequence (P28482 whole entry): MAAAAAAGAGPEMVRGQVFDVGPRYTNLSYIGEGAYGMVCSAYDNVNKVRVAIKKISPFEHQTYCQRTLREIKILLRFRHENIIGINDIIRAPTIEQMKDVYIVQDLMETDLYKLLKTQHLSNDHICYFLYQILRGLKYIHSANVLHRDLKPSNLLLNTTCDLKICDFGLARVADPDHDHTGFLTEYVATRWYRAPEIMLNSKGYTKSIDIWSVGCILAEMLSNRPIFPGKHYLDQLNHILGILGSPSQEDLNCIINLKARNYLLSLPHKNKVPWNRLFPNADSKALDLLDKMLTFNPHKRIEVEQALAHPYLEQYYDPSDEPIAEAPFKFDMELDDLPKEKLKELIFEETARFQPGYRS
# Protocol: as §1
# [5] = biological target: T5, ERK5 (MAPK7) (Homo sapiens, UniProt Q13164); conditions: read-out: Direct inhibitory activity on ERK5 (KINOMEscan)
# T5 construct: purchased DiscoverX (San Diego, Calif.) scanMAX
# T5 sequence (Q13164 whole entry): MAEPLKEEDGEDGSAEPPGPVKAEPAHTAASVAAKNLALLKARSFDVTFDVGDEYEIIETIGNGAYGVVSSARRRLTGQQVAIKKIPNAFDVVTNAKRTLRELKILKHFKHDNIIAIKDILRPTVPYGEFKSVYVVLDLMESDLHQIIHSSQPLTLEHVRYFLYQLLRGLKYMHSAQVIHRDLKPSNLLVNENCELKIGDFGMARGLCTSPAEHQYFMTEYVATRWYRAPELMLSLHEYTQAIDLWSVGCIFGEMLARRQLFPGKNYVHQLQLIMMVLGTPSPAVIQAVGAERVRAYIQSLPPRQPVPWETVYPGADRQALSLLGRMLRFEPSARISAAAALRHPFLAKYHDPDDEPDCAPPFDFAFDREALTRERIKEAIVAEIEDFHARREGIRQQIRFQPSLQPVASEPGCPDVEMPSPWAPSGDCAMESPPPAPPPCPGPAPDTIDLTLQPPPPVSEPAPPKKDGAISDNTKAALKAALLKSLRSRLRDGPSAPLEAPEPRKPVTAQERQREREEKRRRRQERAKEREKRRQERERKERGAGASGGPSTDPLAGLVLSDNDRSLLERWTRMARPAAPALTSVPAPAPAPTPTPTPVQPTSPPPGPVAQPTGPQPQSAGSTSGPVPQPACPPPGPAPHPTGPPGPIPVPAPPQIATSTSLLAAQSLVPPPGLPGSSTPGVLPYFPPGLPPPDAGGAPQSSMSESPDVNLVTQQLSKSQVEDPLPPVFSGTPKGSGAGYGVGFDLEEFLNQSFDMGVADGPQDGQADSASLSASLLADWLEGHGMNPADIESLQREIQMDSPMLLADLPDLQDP
# Protocol: as §1
# [6] = biological target: T6, ERK8 (MAPK15) (Homo sapiens, UniProt Q8TD08); conditions: read-out: Direct inhibitory activity on ERK8 (KINOMEscan)
# T6 construct: purchased DiscoverX (San Diego, Calif.) scanMAX
# T6 sequence (Q8TD08 1-544): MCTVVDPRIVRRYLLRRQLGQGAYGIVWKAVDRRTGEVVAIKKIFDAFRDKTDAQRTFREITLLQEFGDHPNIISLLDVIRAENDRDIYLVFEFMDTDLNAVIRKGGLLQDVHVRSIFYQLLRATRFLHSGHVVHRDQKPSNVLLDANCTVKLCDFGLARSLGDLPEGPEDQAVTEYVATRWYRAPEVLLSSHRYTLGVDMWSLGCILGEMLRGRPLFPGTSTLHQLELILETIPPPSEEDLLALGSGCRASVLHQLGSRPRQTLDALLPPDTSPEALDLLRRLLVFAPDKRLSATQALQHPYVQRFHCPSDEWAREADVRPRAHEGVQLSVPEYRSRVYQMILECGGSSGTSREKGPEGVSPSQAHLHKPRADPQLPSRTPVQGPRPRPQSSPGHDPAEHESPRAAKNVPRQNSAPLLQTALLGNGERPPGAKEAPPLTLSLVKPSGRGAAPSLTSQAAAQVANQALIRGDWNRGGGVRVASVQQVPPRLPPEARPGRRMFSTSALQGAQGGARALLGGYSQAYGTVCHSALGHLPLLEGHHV
# Protocol: as §1
# [7] = biological target: T7, GCN2 (Kin.Dom.2,S808G) (EIF2AK4) (Homo sapiens, UniProt Q9P2K8, S808G); conditions: read-out: Inhibition of GCN2/EIF2AK4 (KINOMEscan)
# T7 construct: Kin.Dom.2; purchased DiscoverX (San Diego, Calif.) scanMAX
# T7 sequence (Q9P2K8 590-1001 S808G limits assumed): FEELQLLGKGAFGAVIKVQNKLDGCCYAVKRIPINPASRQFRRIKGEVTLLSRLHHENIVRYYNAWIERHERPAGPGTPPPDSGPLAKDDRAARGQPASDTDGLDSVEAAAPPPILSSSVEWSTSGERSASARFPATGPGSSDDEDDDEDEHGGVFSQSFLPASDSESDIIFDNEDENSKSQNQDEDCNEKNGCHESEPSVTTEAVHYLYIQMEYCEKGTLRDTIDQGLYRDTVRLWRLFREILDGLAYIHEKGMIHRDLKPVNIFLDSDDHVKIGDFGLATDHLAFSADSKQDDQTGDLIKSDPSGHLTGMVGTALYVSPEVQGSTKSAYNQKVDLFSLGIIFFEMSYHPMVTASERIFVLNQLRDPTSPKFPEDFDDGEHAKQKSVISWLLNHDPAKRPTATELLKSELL
# Protocol: as §1, with “TR-FRET” for “Biochemical assays: Recombinant human EIF2AK3 (PERK) catalytic domain (amino acids 536-1116; Cat # PV5107), GFP-eIF2a (Cat # PV4809) substrate, and Terbium-labelled phospho-eIF2a antibody (Cat # PR8956B) were purchased from Invitrogen (Carlsbad, Calif.). HIS-SUMO-GCN2 catalytic domain (amino acids 584-1019) was expressed and purified from E. coli. TR-FRET”
# [8] = biological target: T8, PRKR (EIF2AK2) (Homo sapiens, UniProt P19525); conditions: read-out: Inhibition of PRKR/EIF2AK2 (KINOMEscan)
# T8 construct: purchased DiscoverX (San Diego, Calif.) scanMAX
# T8 sequence (P19525 whole entry): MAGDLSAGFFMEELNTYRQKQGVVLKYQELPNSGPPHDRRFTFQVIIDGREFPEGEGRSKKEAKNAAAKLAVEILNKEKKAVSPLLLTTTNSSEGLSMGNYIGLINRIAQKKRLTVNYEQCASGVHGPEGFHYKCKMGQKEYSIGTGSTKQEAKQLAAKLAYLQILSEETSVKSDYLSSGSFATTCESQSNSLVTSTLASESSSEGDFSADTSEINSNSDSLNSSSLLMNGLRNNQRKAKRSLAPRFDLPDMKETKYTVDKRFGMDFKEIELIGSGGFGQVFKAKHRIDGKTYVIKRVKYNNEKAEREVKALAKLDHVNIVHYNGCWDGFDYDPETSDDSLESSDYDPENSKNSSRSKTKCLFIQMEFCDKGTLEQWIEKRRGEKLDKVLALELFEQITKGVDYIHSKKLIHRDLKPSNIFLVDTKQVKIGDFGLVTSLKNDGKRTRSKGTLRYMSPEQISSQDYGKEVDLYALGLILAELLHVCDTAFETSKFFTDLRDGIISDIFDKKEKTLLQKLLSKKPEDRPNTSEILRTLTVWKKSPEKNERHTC
# Protocol: as §1, with “TR-FRET” for “Biochemical assays: Recombinant human EIF2AK3 (PERK) catalytic domain (amino acids 536-1116; Cat # PV5107), GFP-eIF2a (Cat # PV4809) substrate, and Terbium-labelled phospho-eIF2a antibody (Cat # PR8956B) were purchased from Invitrogen (Carlsbad, Calif.). HIS-SUMO-GCN2 catalytic domain (amino acids 584-1019) was expressed and purified from E. coli. TR-FRET”
# T1 sequence (P41240 whole entry): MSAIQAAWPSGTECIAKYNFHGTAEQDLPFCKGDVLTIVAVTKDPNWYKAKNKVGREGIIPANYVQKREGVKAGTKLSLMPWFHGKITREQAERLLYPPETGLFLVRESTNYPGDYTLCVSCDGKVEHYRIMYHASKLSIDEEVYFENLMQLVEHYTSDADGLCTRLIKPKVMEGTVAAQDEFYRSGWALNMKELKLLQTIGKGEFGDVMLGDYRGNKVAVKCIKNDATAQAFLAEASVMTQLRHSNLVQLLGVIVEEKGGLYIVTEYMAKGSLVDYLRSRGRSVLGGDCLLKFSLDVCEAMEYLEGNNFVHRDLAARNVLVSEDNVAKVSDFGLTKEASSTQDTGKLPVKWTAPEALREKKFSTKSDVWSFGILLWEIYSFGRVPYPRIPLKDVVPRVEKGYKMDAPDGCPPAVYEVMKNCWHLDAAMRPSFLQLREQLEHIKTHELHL
SMILES,inhibition at 0.2 µM [1] [%],inhibition at 2 µM [1] [%],inhibition at 20 µM [1] [%],inhibition at 0.2 µM [2] [%],inhibition at 2 µM [2] [%],inhibition at 20 µM [2] [%],inhibition at 0.2 µM [3] [%],inhibition at 2 µM [3] [%],inhibition at 20 µM [3] [%],inhibition at 0.2 µM [4] [%],inhibition at 2 µM [4] [%],inhibition at 20 µM [4] [%],inhibition at 0.2 µM [5] [%],inhibition at 2 µM [5] [%],inhibition at 20 µM [5] [%],inhibition at 0.2 µM [6] [%],inhibition at 2 µM [6] [%],inhibition at 20 µM [6] [%],inhibition at 0.2 µM [7] [%],inhibition at 2 µM [7] [%],further results
"Cc1cc(NC(=O)[C@H](O)c2cc(F)cc(F)c2)ccc1-c1cnc(N)c(C(=O)NC(C)C)c1 [LY4, 2-amino-5-[4-[[(2R)-2-(3,5-difluorophenyl)-2-hydroxy-acetyl]amino]-2-methyl-phenyl]-N-isopropyl-pyridine-3-carboxamide]",31,0,14,0,0,0,2,18,0,0,0,1,0,0,4,0,0,0,0,0,inhibition at 20 µM [7]: 28%; inhibition at 0.2 µM [8]: 0%; inhibition at 2 µM [8]: 0%; inhibition at 20 µM [8]: 0%
"Cc1cccc(CC(=O)N2CCc3c2ccc(-c2cn(C)c4ncnc(N)c24)c3F)n1 [GSK2656157, reference compound]",0,33,64,40,22,53,0,17,0,0,0,0,4,23,12,0,3,6,7,13,inhibition at 20 µM [7]: 79%; inhibition at 0.2 µM [8]: 20%; inhibition at 2 µM [8]: 45%; inhibition at 20 µM [8]: 67%
